In US7592154B2, “Modulating SOS response induction by antimicrobial agents” (The Board of Trustees of the Leland Stanford Junior …, priority 2005, dated 2009):

Assays:
dpiBA transcripts = test: quantitative RT-PCR of dpiBA transcripts; format: cell-based, E. coli; conditions: SC1088, 30° C., ampicillin 4 μg/ml for 4 hours (FIG. 1C)
Excerpt: (§1) FIGS. 1A-1C. Structure and transcripts of the dpiBA operon. (A) The dpiB and dpiA genes are aligned in the 5′-3′ direction; citC is 5′ of the dpiBA promoter/operator region and is transcribed divergently from it. The segment of the dpiBA operon included in plasmid pHI1508 is indicated. (B) Agarose gel electrophoresis showing bands generated by reverse transcription PCR amplification of E. coli SC1088 RNA using pairs of oligonucleotide primers corresponding to sequences within dpiB (lane 1, primers a+b), dpiA (lane 2, primers c+d), or both genes (lane 3, primers a+d). Locations of primer sequences are indicated in (A). […] Amounts of template RNA used and loaded onto gels were equal, as assessed by intensity of 16S rRNA bands (bottom panel).

E. coli PBPs = conditions: cited from earlier work
citC gene = test: quantitative RT-PCR of citC expression; format: cell-based, E. coli; conditions: SC1088, 30° C., ampicillin 4 μg/ml for 4 hours (FIG. 1C)
Excerpt: as §1

RecA protein = test: Western blot with anti-RecA antibody; format: cell-based, E. coli; conditions: one hour of exposure, relative to absence of induction
Excerpt: Chemiluminescence of bands was quantitated using a BioRad Versadoc 1000 instrument.

[1] = test system: dpiB promoter (dpiBA operon); test: dpiB/lacZ reporter fusion (pHI1508), β-galactosidase synthesis; format: cell-based, E. coli; conditions: for expression of the dpi operon (lacZ reporter fusion to the dpiB promoter): E. coli UT481 pHI1508, 30° C., antibiotics at approximately twice the MIC (FIG. 2A)
Experimental: FIGS. 2A-2C. […] (A) Expression of the dpi operon as measured in lacZ^− E. coli strain UT481 by a lacZ reporter fusion to the dpiB promoter on pHI1508 [in Miller units]. Bacteria were grown at 30° C. with or without (black squares) antibiotics. […] All antibiotics were added at approximately twice the MIC value for E. coli. All points represent the average of at least three separate experiments. (B) Induction of dpiB/lacZ (as measured by β-galactosidase expression calculated in Miller units) in E. coli JOE339, a lacZ^− mutant strain that carries an ftsl^ts mutation. […] (C) Same as (B) but in MC4100, the parent of JOE339. For (B) and (C), bars indicate SD.
We wished to identify stimuli that activate the dpiBA operon; to monitor such activation, we fused a Hind III-Sma I DNA segment containing the region 5′ to dpiB to a lacZ reporter gene fragment (pHI1508 in FIG. 1A) pHI1508 carries a HindIII-SmaI fragment containing the dpiBA operator/promoter and the first 1219 nucleotides of dpiB (indicated by the heavy bar), inserted into the StuI-HindIII sites of pHI1496, fusing it to the lacZ reporter gene (S1). β-Galactosidase synthesis from this construct was investigated under a variety of growth-limiting conditions known to activate two-component systems and/or the SOS response (including growth in media containing different carbon sources; starvation for O2, PO4, or carbon; heat or cold shock; high salt; exposure to ultraviolet light; culture in stationary phase or in conditioned media; and concentration to a high cell density).

[2] = test system: pabA promoter (gene up-regulated by DpiA); test: pabA/lacZ fusion (pHI1627), β-galactosidase production; format: cell-based, E. coli; conditions: ampicillin 10 μg/ml, 2 hours, 37° C.
Excerpt: A library of E. coli promoters fused to a lacZ gene fragment was constructed as follows: SC1088 chromosomal DNA was partially digested with Sau3AI and 1-2 kb fragments were gel extracted, purified, and ligated to the BamHI site of pHI1496, a lacZ expression vector conferring chloramphenicol resistance (S1). […] Three clones were sequenced and found to contain a 5 kb insert in which the melR promoter region was fused to lacZ (pHI1626), a 300 bp fragment that includes the promoter region of pabA (pHI1627), and a 2.5 kb insert containing the 57-minute region of the E. coli chromosome (pHI1628).

[3] = test system: E. coli SC1088 wild-type and dpiA, recA, sfiA null mutants; test: survival of bacterial cultures exposed to antibiotic (cfu counting); format: cell-based; conditions: for effectiveness (survival) in recA mutant cells versus wild type SC1088: naladixic acid 5 μg/ml, pipericillin 1 μg/ml, kanamycin 5 μg/ml (FIGS. 5A-5C)
Experimental: FIG. 4. Effect of SOS response induction on survival of bacterial cells expressing DpiA during β-lactam exposure. […] Survival data are also shown for strains containing null mutations in recA (open diamonds), dpiA (open circles), or sfiA (open triangles). […] Percent survival was determined by counting of colony forming units (cfu's), at least 200 colonies were counted per time point, and plotted as a function of exposure time before exposure or after exposure to antibiotics.
Because β-lactam antibiotics kill only bacteria that are dividing, we hypothesized that the ability of these drugs to induce the SOS response, and consequently delay cell division by increasing the expression of sfiA, may provide temporary protection from β-lactam lethality.
The experiments shown in FIG. 4 were repeated with the antibiotics: naladixic acid, at 5 μg/ml; pipericillin, at 1 μg/ml; and kanamycin at 5 μg/ml. As shown in FIGS. 5A-5C, the black squares are wild type cells, strain SC1088, the green circles are the dpiA null strain in that background, and the red diamonds are the recA mutation in that background.

[4] = test system: dpiB promoter (dpiBA operon); test: dpiB/lacZ reporter fusion (pHI1508), β-galactosidase synthesis; format: cell-based, E. coli; conditions: ampicillin 10 μg/ml, 2 hours, 37° C.
[5] = test system: SOS-regulated promoter of the sfiA gene; test: sfiA/lacZ fusion, measure of SOS response; format: cell-based, E. coli
Excerpt: FIGS. 3A-3B. SOS response induced by PBP3 inactivation. […] Both (A) and (B) are averages of three separate experiments. Strains were constructed by P1 transduction. Strain 1088 was transduced with phage P1 from E. coli strains containing recA::Tn10(S3) and lexA71::Tn5 (from Mary Berlyn, CGSC). Strain BR5171 is BR3151 (S4) containing a kanamycin resistance gene introduced into the dpiA locus to create a null mutation; another BR3151 derivative, BR7171, contains a Tn10 insertion in the recA locus to create a null mutation. […] An sfiA/lacZ fusion closely linked to a kanamycin resistance marker (S5) was incorporated into the chromosome of ftsIts strain JOE339 and a JOE339 derivative containing a chloramphenicol resistance gene in the dpiA gene (S1).
A biological consequence of DpiA overexpression is induction of the SOS response; the extent of such induction can be determined by β-galactosidase synthesis from a lacZ fusion with the SOS-regulated promoter of the sfiA gene [e.g. Bacolla et al. (2001) J. Biol. Chem. 276, 18579; Hendricks et al. (2000) Mol. Microbiol. 36, 973], which prevents FtsZ polymerization and inhibits cell division when SOS is activated.
The dependence of β-lactam/PBP3-mediated SOS induction on dpiA contrasted with the lack of effect of the dpiA mutation on RecA expression induced by the DNA damaging agent mitomycin C, indicating the distinctive nature of the cell wall-mediated and DNA damage-mediated paths to SOS induction.

Question: Which results are given for `CC1(C)S[C@@H]2[C@H](NC(=O)[C@H](N)c3ccccc3)C(=O)N2[C@H]1C(=O)O` [ampicillin]?
Answer: increase in dpiBA transcripts (dpiBA transcripts): fourfold; binding to E. coli PBPs (E. coli PBPs): binds to all 12 E. coli PBPs; increase in expression of citC gene (citC gene): threefold; RecA protein increase (RecA protein; dpiA::Km null mutant): no increase; RecA protein increase (RecA protein; wt strain 1088, 4 μg/ml): 1.9±0.4 fold; expression of the dpi operon (lacZ reporter fusion to the dpiB promoter) [1]: stimulated; induction of the dpi operon ([1]; ampicillin resistant bacteria carrying a plasmid borne gene encoding β-lactamase): not observed; β-Galactosidase production ([2]; WT strain 1088 + pHI1627): 185 ± 20 Miller units; β-Galactosidase production ([2]; dpiA null mutant + pHI1627): 18 ± 1 Miller units; cells unable to form colonies ([3]; cells mutated in dpiA, recA, or sfiA, 1 hour exposure, 3 μg/ml): 90%; exposure required for the same extent of killing (90%) of wild-type cells ([3]; 3 μg/ml): 4 h; exposure required for the same extent of killing (90%) of wild-type cells ([3]; 9 μg/ml): 1 h; β-Galactosidase production ([4]; WT strain 1088 + pHI1508): 345 ± 50 Miller units; β-Galactosidase production ([4]; dpiA null mutant + pHI1508): 113 ± 15 Miller units; β-Galactosidase production ([4]; lexA null mutant + pHI1508): 110 ± 10 Miller units; β-Galactosidase production ([4]; recA null mutant + pHI1508): 80 ± 8 Miller units; lacZ expression from sfiA/lacZ fusion ([5]; BR3151, ampicillin 4 μg/ml (FIG. 3A)): increased lacZ expression; sfiA/lacZ expression ([5]; bacteria containing a dpiA null mutation, ampicillin 4 μg/ml (FIG. 3A)): no change; effect on expression of the sfiA/lacZ fusion ([5]; recA or lexA mutants, ampicillin treatment (FIG. 3A)): prevented the effects

Question: For `CO/N=C(\C(=O)N[C@@H]1C(=O)N2C(C(=O)O)=C(COC(N)=O)CS[C@H]12)c1ccco1` [cefuroxan], which “expression of the dpi operon (lacZ reporter fusion to the dpiB promoter)” value (shortened to “expression of the dpi operon”) [1] is on record?
Answer: stimulated

Question: With `CC1=C(C(=O)O)N2C(=O)[C@@H](NC(=O)[C@H](N)c3ccccc3)[C@H]2SC1` [cephalexin] as the compound, how does the “binding to E. coli PBPs” value (E. coli PBPs) read?
Answer: bind only to PBP3

Question: And the “expression of the dpi operon” value [1]?
Answer: stimulated

Question: What does the source list for `CO[C@@]12[C@H](COC(N)=O)C3=C(C(=O)C(C)=C(N)C3=O)N1C[C@@H]1N[C@@H]12` [mitomycin C]?
Answer: RecA protein increase (RecA protein; dpiA::Km null mutant): 2.0±0.3 fold; RecA protein increase (RecA protein; wt strain 1088, 4 μg/ml): 1.5±0.2 fold

Question: Which “effectiveness (survival) in recA mutant cells versus wild type SC1088” value [3] does the source give for `CCn1cc(C(=O)O)c(=O)c2ccc(C)nc21` [nalidixic acid] here?
Answer: more effective

Question: For `CCN1CCN(C(=O)N[C@@H](C(=O)N[C@@H]2C(=O)N3[C@@H]2SC(C)(C)[C@@H]3C(=O)O)c2ccccc2)C(=O)C1=O` [pipericillin], which “binding to E. coli PBPs” value (E. coli PBPs) is on record?
Answer: bind only to PBP3

Question: What about the “expression of the dpi operon” value [1] of the same compound?
Answer: stimulated

Question: And the “survival relative to the number before addition of antibiotic” value ([3]; dpiA mutant bacteria, overnight exposure, 2 μg/ml)?
Answer: 0.001%

Question: What about the “effectiveness (survival) in recA mutant cells versus wild type SC1088” value [3] of the same compound?
Answer: more effective

Question: And the “surviving wild-type bacteria versus dpiA mutant bacteria” value ([3]; overnight exposure, 2 μg/ml)?
Answer: 10 times

Question: And the “survival relative to the number before addition of antibiotic” value ([3]; wild-type bacteria, overnight exposure, 2 μg/ml)?
Answer: 0.01%

Question: For penicillin, which “expression of the dpi operon” value [1] is on record?
Answer: stimulated
